Experimental data: patent publication US9920032B2, “Heterocyclic compounds useful as pim kinase inhibitors” (Incyte Corporation, priority 2015, dated 2018)

What was measured:
Format in all cases: biochemical
[1] = biological target: Pim-1 (Homo sapiens (Human), UniProt P11309); assay: Pim-1 kinase assay; conditions: 1 mM ATP; read-out: PIM1 IC50
Description: (§1) Pim-1 and Pim-3 kinase assays—20 μL reactions were run in white 384 well polystyrene plates dotted with 0.8 μL compound/DMSO in the assay buffer (50 mM Tris, pH 7.5, 0.01% Tween-20, 5 mM mgCl2, 0.01% BSA, 5 mM DTT), containing 0.05 μM Biotin-labeled BAD peptide substrate (AnaSpec 62269), 1 mM ATP, and 2.5 pM (Pim-1, Invitrogen PV3503) or 1.25 pM (Pim-3, Millipore 14-738) enzyme for 1 h at 25° C. Reactions were stopped by addition of 10 μL STOP Buffer (150 mM Tris, pH=7.5, 150 mM NaCl, 75 mM EDTA, 0.01% Tween-20, 0.3% BSA,) supplemented with Phospho-Bad (Ser112) Antibody (Cell Signaling 9291) diluted 666-fold, and Streptavidin donor beads (PerkinElmer 6760002) along with Protein-A acceptor beads (PerkinElmer 6760137) at […]. Supplementation of the STOP buffer with beads and stopping the reactions were done under reduced light. Prior to the stopping reactions STOP buffer with beads was preincubated for 1 h in the dark at room temperature. After stopping the reactions, plates were incubated for 1 h in the dark at room temperature before reading on a PHERAstar FS plate reader (BMG Labtech) under reduced light.

[2] = biological target: Pim-2 (Homo sapiens (Human), UniProt Q9P1W9); assay: Pim-2 kinase assay; conditions: 1 mM ATP; read-out: PIM2 IC50
Pim-2, sequence (Q9P1W9 whole entry): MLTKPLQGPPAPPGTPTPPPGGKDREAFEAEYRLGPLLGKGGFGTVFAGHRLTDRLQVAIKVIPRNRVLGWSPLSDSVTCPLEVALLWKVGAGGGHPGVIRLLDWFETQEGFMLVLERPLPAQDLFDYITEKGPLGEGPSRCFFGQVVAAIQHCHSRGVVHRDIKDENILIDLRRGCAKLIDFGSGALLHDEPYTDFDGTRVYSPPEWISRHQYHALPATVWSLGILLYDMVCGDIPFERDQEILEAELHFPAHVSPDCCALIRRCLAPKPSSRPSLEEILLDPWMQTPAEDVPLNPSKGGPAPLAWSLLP
Description: Pim-2 kinase assay—20 μL reactions were run in white 384 well polystyrene plates dotted with 0.8 μL compound/DMSO in the assay buffer (50 mM Tris, pH 7.5, 0.01% Tween-20, 5 mM mgCl2, 0.01% BSA, 5 mM DTT), containing 0.05 μM Fluorescein-labeled CREBtide peptide substrate (Invitrogen PV3508), 1 mM ATP, and 1 nM enzyme (Invitrogen PV3649) for 2 h at 25° C. Reactions were stopped by addition of 10 μL TR-FRET Dilution Buffer (Invitrogen PV3574) with 30 mM EDTA and 1.5 nM LanthaScreen Tb-CREB pSer133 antibody (Invitrogen PV3566). After 30 min. incubation at room temperature, plates were read on a PHERAstar FS plate reader (BMG Labtech).

[3] = biological target: Pim-3 (Homo sapiens (Human), UniProt Q86V86); assay: Pim-3 kinase assay; conditions: 1 mM ATP; read-out: PIM3 IC50
Description: as §1

Pim-1, sequence (P11309 whole entry): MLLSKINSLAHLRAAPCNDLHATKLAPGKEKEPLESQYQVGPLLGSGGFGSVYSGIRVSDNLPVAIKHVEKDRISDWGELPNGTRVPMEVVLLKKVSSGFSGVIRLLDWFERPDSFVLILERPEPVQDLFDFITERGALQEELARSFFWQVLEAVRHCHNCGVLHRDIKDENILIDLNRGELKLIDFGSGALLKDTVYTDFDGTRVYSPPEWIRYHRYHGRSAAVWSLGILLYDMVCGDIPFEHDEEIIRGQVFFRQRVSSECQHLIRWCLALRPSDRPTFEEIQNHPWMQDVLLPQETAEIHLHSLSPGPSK

Structure (SMILES)	IC50 [1] [nM]	IC50 [2] [nM]	IC50 [3] [nM]
C[C@@H]1C[C@H](N)C[C@H](c2ccncc2NC(=O)c2ccc(F)c3cc(C4CCOCC4)cnc23)C1 [Example 31, N-{4-[(1R,3S,5S)-3-Amino-5-methylcyclohexyl]pyridin-3-yl}-5-fluoro-3-(tetrahydro-2H-pyran-4-yl)quinoline-8-carboxamide]	≤ 10	100 to 1000	≤ 10
CO[C@@H]1C[C@H](C)N(c2cnc3c(C(=O)Nc4cnccc4[C@@H]4C[C@H](C)C[C@H](N)C4)ccc(F)c3c2)C1 [Example 155, N-(4-((1R,3S,5S)-3-Amino-5-methylcyclohexyl]pyridin-3-yl}-5-fluoro-3-[(2S,4R)-4-methoxy-2-methylpyrrolidin-1-yl]quinoline-8-carboxamide]	≤ 10	≤ 100	≤ 10
C[C@@H]1C[C@H](N)C[C@H](c2ccncc2NC(=O)c2ccc(F)c3cc(N4CCCN(C)S4(=O)=O)cnc23)C1 [Example 128, N-(4-((1R,3S,5S)-3-Amino-5-methylcyclohexyl)pyridin-3-yl)-5-fluoro-3-(6-methyl-1,1-dioxido-1,2,6-thiadiazinan-2-yl)quinoline-8-carboxamide]	≤ 10	≤ 100	≤ 10
C[C@@H]1C[C@H](N)C[C@H](c2ccncc2NC(=O)c2ccc(F)c3cc(N(C)c4ncccc4OC(F)F)cnc23)C1 [Example 139, N-(4-((1R,3S,5S)-3-Amino-5-methylcyclohexyl)pyridin-3-yl)-3-((3-(difluoromethoxy)pyridin-2-yl)(methyl)amino)-5-fluoroquinoline-8-carboxamide]	≤ 10	≤ 100	≤ 10
C[C@@H]1C[C@H](N)C[C@H](c2ccncc2NC(=O)c2ccc(F)c3cc(N4C5CCC4COC5)cnc23)C1 [Example 77, N-(4-((1R,3S,5S)-3-Amino-5-methylcyclohexyl)pyridin-3-yl)-3-(3-oxa-8-azabicyclo[3.2.1]octan-8-yl)-5-fluoroquinoline-8-carboxamide]	≤ 10	≤ 100	≤ 10
C[C@@H]1C[C@H](N)C[C@H](c2ccncc2NC(=O)c2ccc(F)c3cc(N4CCC[C@H]4C)nnc23)C1 [Example 95, N-{4-[(1R,3S,5S)-3-Amino-5-methylcyclohexyl]pyridin-3-yl}-5-fluoro-3-[(2R)-2-methylpyrrolidin-1-yl]cinnoline-8-carboxamide]	≤ 10	≤ 100	≤ 10
C[C@@H]1C[C@H](N)C[C@H](c2ccncc2NC(=O)c2ccc(F)c3cc(N4CC(F)C4)cnc23)C1 [Example 9, N-{4-[(1R,3S,5S)-3-Amino-5-methylcyclohexyl]pyridin-3-yl}-5-fluoro-3-(3-fluoroazetidin-1-yl)quinoline-8-carboxamide]	≤ 10	100 to 1000	≤ 10
C[C@@H]1C[C@H](N)C[C@H](c2ccncc2NC(=O)c2ccc(F)c3cc(N4CCSCC4)cnc23)C1 [Example 73, N-(4-((1R,3S,5S)-3-Amino-5-methylcyclohexyl)pyridin-3-yl)-5-fluoro-3-thiomorpholinoquinoline-8-carboxamide]	≤ 10	≤ 100	≤ 10
C[C@@H]1C[C@H](N)C[C@H](c2ccncc2NC(=O)c2ccc(F)c3cc(N(C)[C@@H]4CCOC4)cnc23)C1 [Example 154, N-(4-((1R,3S,5S)-3-Amino-5-methylcyclohexyl)pyridin-3-yl)-5-fluoro-3-(methyl((R)-tetrahydrofuran-3-yl)amino)quinoline-8-carboxamide]	≤ 10	100 to 1000	≤ 10
C[C@@H]1C[C@H](N)C[C@H](c2ccncc2NC(=O)c2ccc(F)c3cc(C4CC4)cnc23)C1 [Example 13, N-{4-[(1R,3S,5S)-3-Amino-5-methylcyclohexyl]pyridin-3-yl}-3-cyclopropyl-5-fluoroquinoline-8-carboxamide]	≤ 10	≤ 100	≤ 10
CO[C@@H]1CCN(c2cnc3c(C(=O)Nc4cnccc4[C@@H]4C[C@H](C)C[C@H](N)C4)ccc(F)c3c2)[C@@H](C)C1 [Example 160, N-(4-((1R,3S,5S)-3-Amino-5-methylcyclohexyl)pyridin-3-yl)-5-fluoro-3-((2S,4R)-4-methoxy-2-methylpiperidin-1-yl)quinoline-8-carboxamide]	≤ 10	≤ 100	≤ 10
CC1CCCCN1c1cnc2c(C(=O)Nc3cnccc3[C@@H]3C[C@H](C)C[C@H](N)C3)ccc(F)c2c1 (stereo partly drawn) [Example 43, N-(4-((1R,3S,5S)-3-Amino-5-methylcyclohexyl)pyridin-3-yl)-5-fluoro-3-(2-methylpiperidin-1-yl)quinoline-8-carboxamide]	≤ 10	≤ 100	≤ 10
C[C@@H]1C[C@H](N)C[C@H](c2ccncc2NC(=O)c2ccc(F)c3cc(N4CCN(S(C)(=O)=O)C[C@H]4C)cnc23)C1 [Example 86, N-(4-((1R,3S,5S)-3-Amino-5-methylcyclohexyl)pyridin-3-yl)-5-fluoro-3-((R)-2-methyl-4-(methylsulfonyl)piperazin-1-yl)quinoline-8-carboxamide]	≤ 10	≤ 100	≤ 10
C[C@@H]1C[C@H](N)C[C@H](c2ccncc2NC(=O)c2ccc(F)c3cc(N4CCCN(C)C(=O)C4)cnc23)C1 [Example 135, N-(4-((1R,3S,5S)-3-Amino-5-methylcyclohexyl)pyridin-3-yl)-5-fluoro-3-(4-methyl-3-oxo-1,4-diazepan-1-yl)quinoline-8-carboxamide]	≤ 10	100 to 1000	≤ 10
C[C@@H]1C[C@H](N)C[C@H](c2ccncc2NC(=O)c2ccc(F)c3cc(N4CCN(C5CC5)C(=O)C4)cnc23)C1 [Example 114, N-(4-((1R,3S,5S)-3-Amino-5-methylcyclohexyl)pyridin-3-yl)-3-(4-cyclopropyl-3-oxopiperazin-1-yl)-5-fluoroquinoline-8-carboxamide]	≤ 10	≤ 100	≤ 10
C[C@@H]1C[C@H](N)C[C@H](c2ccncc2NC(=O)c2ccc(F)c3cc(N(C)CC4CC4)cnc23)C1 [Example 19, N-{4-[(1R,3S,5S)-3-Amino-5-methylcyclohexyl]pyridin-3-yl}-3-[(cyclopropylmethyl)(methyl)amino]-5-fluoroquinoline-8-carboxamide]	≤ 10	100 to 1000	≤ 10
C[C@@H]1C[C@H](N)C[C@H](c2ccncc2NC(=O)c2ccc(F)c3cc(N4C5CCC4CC(O)C5)cnc23)C1 (stereo partly drawn) [Example 98, N-(4-((1R,3S,5S)-3-Amino-5-methylcyclohexyl)pyridin-3-yl)-5-fluoro-3-(3-hydroxy-8-azabicyclo[3.2.1]octan-8-yl)quinoline-8-carboxamide]	≤ 10	≤ 100	≤ 10
C[C@@H]1C[C@H](N)C[C@H](c2ccncc2NC(=O)c2cccc3cc(N4CCOC[C@H]4C)cnc23)C1 [Example 67, N-(4-((1R,3S,5S)-3-Amino-5-methylcyclohexyl)pyridin-3-yl)-3-((R)-3-methylmorpholino)quinoline-8-carboxamide]	≤ 10	≤ 100	≤ 10
C[C@@H]1C[C@H](N)C[C@H](c2ccncc2NC(=O)c2ccc(F)c3cc(NCC(F)F)cnc23)C1 [Example 27, N-{4-[(1R,3S,5S)-3-Amino-5-methylcyclohexyl]pyridin-3-yl}-3-[(2,2-difluoroethyl)amino]-5-fluoroquinoline-8-carboxamide]	≤ 10	≤ 100	≤ 10
Cc1nccnc1N(C)c1cnc2c(C(=O)Nc3cnccc3[C@@H]3C[C@H](C)C[C@H](N)C3)ccc(F)c2c1 [Example 149, N-(4-((1R,3S,5S)-3-Amino-5-methylcyclohexyl)pyridin-3-yl)-5-fluoro-3-(methyl(3-methylpyrazin-2-yl)amino)quinoline-8-carboxamide]	≤ 10	≤ 100	≤ 10
C[C@@H]1C[C@H](N)C[C@H](c2ccncc2NC(=O)c2ccc(F)c3cc(N4CC(=O)N5CCCC[C@@H]5C4)cnc23)C1 [Example 100, N-(4-((1R,3S,5S)-3-Amino-5-methylcyclohexyl)pyridin-3-yl)-5-fluoro-3-((R)-4-oxodihydro-1H-pyrido[1,2-a]pyrazin-2(6H,7H,8H,9H,9aH)-yl)quinoline-8-carboxamide]	≤ 10	≤ 100	≤ 10
